# Measured values as given in patent US20110256298A1, “BEER AND BEER-BASED BEVERAGES AND METHOD OF MODIFICATION OF POLYPHENOLS AND SILICON CONTENT IN THESE BEVERAGES” (priority 2009, published 2011).
# What was measured:
# physchem = assay type: physicochemical; details: for solubility thermodynamic: aqueous with cosolvent or surfactant or cyclodextrin, thermodynamic from solid
# Excerpt: The equilibrium solubility of silymarin in two kinds of beer after the addition of the water-soluble mixture with the Silybum marianum polyphenols according to example 1 are shown in the following table: […]
# [1] = Total amount of Silybum marianum polyphenols in bottled beer by HPLC; assay type: physicochemical; details: example 1 mixture dosed at 100 mg silymarin per liter; for Content in DIA beer: bottled DIA beer; for Content in PILS 12% beer: bottled PILS 12% beer; for Content in Non-alcoholic beer: bottled non-alcoholic beer
# Method: The total amount of Silybum marianum polyphenols in beers was determined by HPLC in bottled beer as a sum of silymarin components.
equilibrium solubility in Lager Radegast Premium (physchem) [µg/mL],equilibrium solubility in Non-alcoholic Radegast Birell (physchem) [µg/mL],Content in DIA beer [1] [mg/L],Content in PILS 12% beer [1] [mg/L],Content in Non-alcoholic beer [1] [mg/L],solubility thermodynamic (physchem; equilibrium solubility in Lager Radegast Premium) [µg/mL],solubility thermodynamic (physchem; equilibrium solubility in Non-alcoholic Radegast Birell) [µg/mL],Molecule
43.03,38.22,5.7,15.1,11.5,–,–,COc1cc([C@H]2Oc3cc([C@H]4Oc5cc(O)cc(O)c5C(=O)[C@@H]4O)ccc3O[C@@H]2CO)ccc1O [Silybin A]
85.18,75.70,15.4,28.4,29.4,–,–,COc1cc([C@@H]2Oc3cc([C@H]4Oc5cc(O)cc(O)c5C(=O)[C@@H]4O)ccc3O[C@H]2CO)ccc1O [Silybin B]
187.51,176.46,32.7,42.1,40.5,–,–,COc1cc([C@@H]2Oc3c(O)cc([C@H]4Oc5cc(O)cc(O)c5C(=O)[C@@H]4O)cc3[C@H]2CO)ccc1O [Silychristin]
54.33,48.22,20.9,15.3,12.5,–,–,Isosilybin A + B
–,–,–,–,–,66.1,61.7,COc1cc([C@@H]2[C@H]3CO[C@@]4(O)C(=O)[C@@H]2C=C([C@H]2Oc5cc(O)cc(O)c5C(=O)[C@@H]2O)[C@@H]34)ccc1O [Silydianin]
436.17,400.31,–,–,–,–,–,silymarin
